The results in this text go back to ChEMBL document CHEMBL1201862, “PubChem BioAssay data set” (2004).

Calls of active or inactive are those of the source. Where only a bound is given, the exact number is not on record here.

One assay has as its target Bcl-2-like protein 1 (Homo sapiens, UniProt Q07817). Nature of the assay: blockers of BCLXL peptide binding – biochemical, fluorescence polarization, 1536-well, selectivity assay for MCL1 inhibitor project, dose response (AID 2218). (In general: Fluorescence polarisation rises when a labelled molecule tumbles more slowly, as on binding a larger partner.)
In assay [1] the target is T1, Induced myeloid leukemia cell differentiation protein Mcl-1 (Homo sapiens, UniProt Q07820). In kind it is functional.
The target in assay [2] is T1, Induced myeloid leukemia cell differentiation protein Mcl-1. Nature of the assay: blockers of MCL1 binding to BIM peptide – biochemical, fluorescence polarization, BIM-BH3 peptide, 1536-well, dose response (AID 2217).
The next assay addresses NADPH oxidase 1 (Homo sapiens, UniProt Q9Y5S8). In kind it is functional, cell-based.
The target of assay [3] is T2, Bcl-2-related protein A1 (Mus musculus, UniProt Q07440).
T2 sequence (Q07440 whole entry): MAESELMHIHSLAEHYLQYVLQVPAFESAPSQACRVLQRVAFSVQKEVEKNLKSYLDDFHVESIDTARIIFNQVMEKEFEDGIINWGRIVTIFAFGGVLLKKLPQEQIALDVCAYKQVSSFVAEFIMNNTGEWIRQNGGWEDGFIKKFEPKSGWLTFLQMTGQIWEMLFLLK
Nature of the assay: small-molecule antagonists of Bfl-1/BH3 interaction – biochemical, TR-FRET, mouse Bfl-1, confirmation (AID 621). (In general: TR-FRET usually uses a lanthanide donor and a delayed reading to cut background.)

The target of assay [4] is Glyceraldehyde-3-phosphate dehydrogenase (Homo sapiens, UniProt P04406).
Assay [5] has as its target T2, Bcl-2-related protein A1. Nature of the assay: Bfl-1 binding inhibitors, SAR follow-up, biochemical, fluorescence polarization (AID 1070).
The target in assay [6] is T3, Heat shock factor protein 1 (Mus musculus, UniProt P38532).
T3 sequence (P38532 whole entry): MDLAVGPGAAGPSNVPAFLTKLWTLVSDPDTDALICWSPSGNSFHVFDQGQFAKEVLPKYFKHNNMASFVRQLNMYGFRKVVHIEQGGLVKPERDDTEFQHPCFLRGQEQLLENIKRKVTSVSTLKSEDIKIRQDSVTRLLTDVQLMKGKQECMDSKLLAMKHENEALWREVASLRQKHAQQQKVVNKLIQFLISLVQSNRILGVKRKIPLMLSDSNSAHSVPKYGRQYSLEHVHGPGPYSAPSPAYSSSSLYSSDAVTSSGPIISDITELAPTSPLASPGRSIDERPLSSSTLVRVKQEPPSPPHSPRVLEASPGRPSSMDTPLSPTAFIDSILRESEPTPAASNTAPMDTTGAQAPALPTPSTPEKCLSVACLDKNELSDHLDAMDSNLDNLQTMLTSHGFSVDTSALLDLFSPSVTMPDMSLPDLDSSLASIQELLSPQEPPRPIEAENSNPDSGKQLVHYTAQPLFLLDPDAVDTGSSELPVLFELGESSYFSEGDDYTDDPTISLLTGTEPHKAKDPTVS
Description: decrease of HSF1-responsive luciferase luminescence – cell-based, NIH3T3, dose retest, confirmation (AID 2382).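 Note: NIH3T3 fibroblasts with HSF1-driven luciferase reporter stressed by proteasome inhibitor MG132; luminescence from HSF1-driven luciferase expression after 8 hours of MG132 stress.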 Format: functional.

The next assay has as its target T4, Mucolipin-3 (Homo sapiens, UniProt Q8TDD5).
T4 sequence (Q8TDD5 whole entry): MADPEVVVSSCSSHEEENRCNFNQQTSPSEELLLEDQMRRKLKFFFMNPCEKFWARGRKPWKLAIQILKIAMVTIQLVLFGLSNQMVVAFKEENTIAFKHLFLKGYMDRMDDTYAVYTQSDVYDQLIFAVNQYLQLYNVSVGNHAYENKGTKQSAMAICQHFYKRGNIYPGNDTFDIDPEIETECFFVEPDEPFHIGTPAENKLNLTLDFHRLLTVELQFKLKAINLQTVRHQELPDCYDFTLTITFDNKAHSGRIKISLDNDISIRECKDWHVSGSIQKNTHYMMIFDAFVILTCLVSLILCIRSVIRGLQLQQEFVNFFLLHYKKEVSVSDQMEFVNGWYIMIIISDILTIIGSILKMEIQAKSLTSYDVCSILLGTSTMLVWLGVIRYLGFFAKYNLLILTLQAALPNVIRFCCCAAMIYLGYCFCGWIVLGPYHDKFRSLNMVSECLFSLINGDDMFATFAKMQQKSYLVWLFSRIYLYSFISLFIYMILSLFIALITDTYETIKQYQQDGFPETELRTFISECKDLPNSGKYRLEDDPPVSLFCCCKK
Nature of the assay: Dose response cell-based high-throughput screening assay for agonists of the transient receptor potential channel ML3 (TRPML3). [Related pubchem assays: 1526, 1424, 1448 ]. In kind it is functional.

Another assay concerns the target Ion channel NompC (Danio rerio, UniProt Q7T1G6). Description: Fluorescence counterscreen assay for TRPML3 agonists: dose response cell-based high-throughput screening assay to identify agonists of the transient receptor potential channel N1 (TRPN1). [Related pubchem assays: 1526, 1424, 1448 ]. In kind it is functional.
Assay [7] addresses T5, Replicative DNA helicase DnaB (Mycobacterium tuberculosis, UniProt P9WMR3).
T5 sequence (P9WMR3 whole entry): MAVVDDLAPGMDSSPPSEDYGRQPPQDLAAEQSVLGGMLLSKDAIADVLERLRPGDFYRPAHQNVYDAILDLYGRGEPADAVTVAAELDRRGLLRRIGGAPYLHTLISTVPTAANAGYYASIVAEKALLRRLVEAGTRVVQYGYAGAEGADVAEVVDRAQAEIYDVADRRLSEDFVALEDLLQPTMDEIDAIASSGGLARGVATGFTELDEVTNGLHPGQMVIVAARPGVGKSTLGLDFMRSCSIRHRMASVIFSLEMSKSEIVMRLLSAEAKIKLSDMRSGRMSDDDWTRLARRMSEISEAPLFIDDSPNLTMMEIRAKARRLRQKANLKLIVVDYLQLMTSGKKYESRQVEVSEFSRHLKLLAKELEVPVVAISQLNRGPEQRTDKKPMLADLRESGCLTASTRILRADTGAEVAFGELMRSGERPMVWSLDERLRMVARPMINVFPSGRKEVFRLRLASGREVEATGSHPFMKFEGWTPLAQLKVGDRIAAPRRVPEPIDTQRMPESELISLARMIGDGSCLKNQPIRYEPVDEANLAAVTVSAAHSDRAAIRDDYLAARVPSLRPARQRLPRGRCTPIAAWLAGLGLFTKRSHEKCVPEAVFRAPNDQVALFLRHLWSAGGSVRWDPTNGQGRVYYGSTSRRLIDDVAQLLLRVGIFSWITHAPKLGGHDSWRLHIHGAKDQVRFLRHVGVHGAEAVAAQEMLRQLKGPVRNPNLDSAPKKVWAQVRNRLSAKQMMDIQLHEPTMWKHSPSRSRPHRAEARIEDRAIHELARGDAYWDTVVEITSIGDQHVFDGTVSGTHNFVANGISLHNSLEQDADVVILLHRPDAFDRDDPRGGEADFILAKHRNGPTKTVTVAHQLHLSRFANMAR
Description: DnaB intein splicing inhibitors, dose response, biochemical, cell-free fluorescence (AID 449749). Format: functional.

The target in assay [8] is Tyrosyl-DNA phosphodiesterase 2 (Homo sapiens, UniProt O95551). Nature of the assay: potency against TDP2 phosphodiesterase activity – biochemical, epi absorbance, IC50, dose response (AID 743297).
The target of assay [9] is Mothers against decapentaplegic homolog 3 (Homo sapiens, UniProt P84022). Nature of the assay: inhibitors of SMAD-driven TGF-beta signaling – dose response (AID 715). In kind it is functional.
In another assay the target is T6, Protein RecA (Mycobacterium tuberculosis, UniProt P9WHJ3).
T6 sequence (P9WHJ3 whole entry): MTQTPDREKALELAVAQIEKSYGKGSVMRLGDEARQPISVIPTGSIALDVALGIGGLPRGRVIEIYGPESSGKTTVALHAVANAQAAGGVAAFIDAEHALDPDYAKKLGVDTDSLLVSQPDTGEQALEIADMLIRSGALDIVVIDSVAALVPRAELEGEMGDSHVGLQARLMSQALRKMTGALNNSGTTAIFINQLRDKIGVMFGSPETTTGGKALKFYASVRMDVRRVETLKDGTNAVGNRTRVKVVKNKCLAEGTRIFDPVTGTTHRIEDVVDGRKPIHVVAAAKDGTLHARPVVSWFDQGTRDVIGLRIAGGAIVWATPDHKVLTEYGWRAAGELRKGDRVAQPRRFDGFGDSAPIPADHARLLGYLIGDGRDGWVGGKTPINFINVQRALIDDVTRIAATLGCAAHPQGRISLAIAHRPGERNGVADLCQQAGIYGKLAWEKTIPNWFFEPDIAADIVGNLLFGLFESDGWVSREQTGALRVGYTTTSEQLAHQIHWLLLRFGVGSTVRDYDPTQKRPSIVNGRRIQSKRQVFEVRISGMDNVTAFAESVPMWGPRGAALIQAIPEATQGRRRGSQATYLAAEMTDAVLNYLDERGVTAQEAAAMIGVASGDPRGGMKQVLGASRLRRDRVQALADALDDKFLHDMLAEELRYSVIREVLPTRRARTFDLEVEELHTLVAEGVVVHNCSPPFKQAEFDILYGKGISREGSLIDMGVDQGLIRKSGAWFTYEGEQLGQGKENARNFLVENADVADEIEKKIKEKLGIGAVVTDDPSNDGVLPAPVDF
Nature of the assay: Fluorescence Cell-Free Homogeneous Dose Retest to Identify Inhibitors of RecA-Intein Splicing Activity. [Related pubchem assays (depositor defined):AID2097, AID2223, AID489010, AID492950]. In kind it is functional.

Assay [10] has as its target Lysine-specific demethylase 4C (Homo sapiens, UniProt Q9H3R0). Description: inhibition of JMJD2C H3K9me3 demethylation – biochemical, DELFIA europium, cherry-picked samples, dose response (AID 488835). In kind it is functional.
Assay [11] is described as follows: mitochondrial function rescue without frataxin homolog – Friedreich's ataxia, plus single-dose screen, dose response (AID 1465).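 Note: yeast depleted of Yfh1p frataxin homolog grown on glycerol needing respiration; WST-1 tetrazolium dye reduction as measure of cellular dehydrogenase metabolic activity.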 In kind it is functional.
For assay [12], the target named is Sphingosine 1-phosphate receptor 2 (Homo sapiens, UniProt O95136). Description: Dose Response Cell Based Assay for Agonists of the S1P2 Receptor of Purchased Analogues. [Related pubchem assays: 729, 843, 854, 736 ]. Format: functional.
Assay [13] can be described thus: decrease of insulin promoter-GFP reporter – imaging, high-content screening, mouse beta cells (AID 1628). In kind it is functional. The note with it: MIN6.
In assay [14] the target is Protein-tyrosine kinase 2-beta (Homo sapiens, UniProt Q14289).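 Note: potency of inhibitors of PYK2 kinase phosphorylation of poly-GT substrate.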
The nature of assay [15]: MIN6 cell viability loss – mouse insulinoma, cytotoxicity control, dose response (AID 2122).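 Note: confirmatory high-throughput counterscreen run to flag cytotoxic compounds.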 Format: functional.
Another assay relates to H4. Nature of the assay: Luminescence Cell-Based Dose Response HTS to Identify Activators of 5'UTR Stem-Loop Driven Prion Protein mRNA Translation in H4 Neuroglioblastoma Cells. [Related pubchem assays: 1829 (Project Summary), 1814 (Primary HTS)]. In kind it is functional. The note with it: Homo sapiens.
Assay [16] in a line: Luminescence Cell-Based Dose Confirmation HTS to Identify Activators of 5'UTR Stem-Loop Driven Alpha-Synuclein mRNA Translation in H4 Neuroglioblastoma Cells. [Related pubchem assays: 1829 (Project Summary), 1814 (Primary HTS)]. Format: functional.
Assay [17] can be described thus: Luminescence Cell-Based Dose Response HTS to Identify Activators of Luciferase Translation or Activity in H4 […] Cells. [Related pubchem assays: 1829 (Project Summary), 1814 (Primary HTS)]. Format: functional.

T1 sequence (Q07820 whole entry): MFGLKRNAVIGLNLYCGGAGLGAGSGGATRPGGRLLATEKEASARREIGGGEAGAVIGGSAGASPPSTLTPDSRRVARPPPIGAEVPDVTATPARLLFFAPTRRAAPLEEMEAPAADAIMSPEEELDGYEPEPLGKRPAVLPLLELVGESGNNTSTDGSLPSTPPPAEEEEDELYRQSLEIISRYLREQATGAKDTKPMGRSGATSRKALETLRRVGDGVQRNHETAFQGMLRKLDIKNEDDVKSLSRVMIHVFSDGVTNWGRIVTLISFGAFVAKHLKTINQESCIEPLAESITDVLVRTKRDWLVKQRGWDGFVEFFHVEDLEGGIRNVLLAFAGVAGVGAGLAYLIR
Sequence of Ion channel NompC (Q7T1G6 whole entry): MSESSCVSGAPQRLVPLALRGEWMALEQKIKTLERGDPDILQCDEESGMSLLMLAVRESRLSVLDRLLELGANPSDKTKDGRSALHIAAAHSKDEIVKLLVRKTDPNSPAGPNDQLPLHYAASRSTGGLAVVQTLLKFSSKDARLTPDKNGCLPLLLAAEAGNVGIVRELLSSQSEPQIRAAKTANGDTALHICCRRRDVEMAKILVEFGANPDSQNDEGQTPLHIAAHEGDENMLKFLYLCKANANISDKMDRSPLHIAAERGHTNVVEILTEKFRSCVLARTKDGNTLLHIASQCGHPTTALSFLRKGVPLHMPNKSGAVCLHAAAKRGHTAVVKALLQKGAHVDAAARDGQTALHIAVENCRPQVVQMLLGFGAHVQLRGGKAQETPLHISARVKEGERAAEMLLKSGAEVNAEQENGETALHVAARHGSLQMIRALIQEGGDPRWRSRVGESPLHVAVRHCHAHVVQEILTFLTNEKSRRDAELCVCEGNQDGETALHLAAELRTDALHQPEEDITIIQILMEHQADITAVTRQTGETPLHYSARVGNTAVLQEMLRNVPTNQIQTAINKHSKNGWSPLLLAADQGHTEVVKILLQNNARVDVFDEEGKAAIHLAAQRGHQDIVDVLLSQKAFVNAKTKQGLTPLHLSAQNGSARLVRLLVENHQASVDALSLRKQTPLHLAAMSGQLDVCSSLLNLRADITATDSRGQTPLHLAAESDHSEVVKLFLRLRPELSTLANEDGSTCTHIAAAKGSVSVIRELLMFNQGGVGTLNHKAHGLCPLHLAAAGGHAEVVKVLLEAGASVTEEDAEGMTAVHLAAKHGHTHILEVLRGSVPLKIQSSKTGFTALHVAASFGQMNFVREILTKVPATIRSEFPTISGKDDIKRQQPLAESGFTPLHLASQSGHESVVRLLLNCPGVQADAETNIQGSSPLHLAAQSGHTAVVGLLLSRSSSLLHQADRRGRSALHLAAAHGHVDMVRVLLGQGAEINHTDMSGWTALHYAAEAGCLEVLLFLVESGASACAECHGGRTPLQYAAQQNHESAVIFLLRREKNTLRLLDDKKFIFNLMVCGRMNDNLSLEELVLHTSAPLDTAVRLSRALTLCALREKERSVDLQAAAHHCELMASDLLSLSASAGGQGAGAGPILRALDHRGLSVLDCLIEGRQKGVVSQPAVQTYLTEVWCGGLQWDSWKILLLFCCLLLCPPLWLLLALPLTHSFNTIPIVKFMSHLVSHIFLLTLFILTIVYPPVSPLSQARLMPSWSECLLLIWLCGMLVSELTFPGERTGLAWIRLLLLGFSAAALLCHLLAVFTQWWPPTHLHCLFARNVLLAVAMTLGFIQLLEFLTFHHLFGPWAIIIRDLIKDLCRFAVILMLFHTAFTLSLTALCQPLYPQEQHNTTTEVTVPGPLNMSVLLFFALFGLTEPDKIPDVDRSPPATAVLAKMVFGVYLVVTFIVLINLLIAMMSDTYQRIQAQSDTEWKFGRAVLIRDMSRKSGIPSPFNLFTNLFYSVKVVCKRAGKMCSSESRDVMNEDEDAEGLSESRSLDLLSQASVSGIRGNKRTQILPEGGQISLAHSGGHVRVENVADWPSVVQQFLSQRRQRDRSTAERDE
Sequence of Lysine-specific demethylase 4C (Q9H3R0 whole entry): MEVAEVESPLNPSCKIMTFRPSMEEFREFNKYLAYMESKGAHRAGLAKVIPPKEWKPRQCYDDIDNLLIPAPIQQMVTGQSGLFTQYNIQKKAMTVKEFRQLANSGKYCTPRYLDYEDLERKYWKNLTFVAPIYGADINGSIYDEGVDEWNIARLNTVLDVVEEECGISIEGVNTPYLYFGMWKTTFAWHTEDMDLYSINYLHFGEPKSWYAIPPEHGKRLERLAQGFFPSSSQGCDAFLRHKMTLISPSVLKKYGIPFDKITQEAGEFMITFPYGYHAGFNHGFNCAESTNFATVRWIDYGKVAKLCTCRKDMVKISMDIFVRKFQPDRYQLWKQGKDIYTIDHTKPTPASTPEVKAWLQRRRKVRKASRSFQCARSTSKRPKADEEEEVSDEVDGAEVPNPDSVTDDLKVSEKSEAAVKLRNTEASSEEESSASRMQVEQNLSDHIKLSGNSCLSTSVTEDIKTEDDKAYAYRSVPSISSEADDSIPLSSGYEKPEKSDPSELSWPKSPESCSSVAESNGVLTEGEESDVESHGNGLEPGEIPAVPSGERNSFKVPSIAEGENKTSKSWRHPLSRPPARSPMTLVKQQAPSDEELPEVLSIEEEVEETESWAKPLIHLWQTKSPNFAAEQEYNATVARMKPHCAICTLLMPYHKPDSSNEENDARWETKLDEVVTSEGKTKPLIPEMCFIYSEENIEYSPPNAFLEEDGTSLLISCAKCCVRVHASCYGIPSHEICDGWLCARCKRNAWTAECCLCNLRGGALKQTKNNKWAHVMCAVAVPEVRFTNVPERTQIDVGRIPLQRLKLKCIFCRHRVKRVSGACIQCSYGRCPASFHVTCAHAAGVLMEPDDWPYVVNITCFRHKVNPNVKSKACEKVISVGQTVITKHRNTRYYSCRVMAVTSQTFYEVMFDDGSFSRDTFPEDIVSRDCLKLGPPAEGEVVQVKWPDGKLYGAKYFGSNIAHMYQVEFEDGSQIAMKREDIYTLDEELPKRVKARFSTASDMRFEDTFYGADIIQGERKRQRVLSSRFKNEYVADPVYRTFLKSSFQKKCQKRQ
Sequence of Sphingosine 1-phosphate receptor 2 (O95136 whole entry): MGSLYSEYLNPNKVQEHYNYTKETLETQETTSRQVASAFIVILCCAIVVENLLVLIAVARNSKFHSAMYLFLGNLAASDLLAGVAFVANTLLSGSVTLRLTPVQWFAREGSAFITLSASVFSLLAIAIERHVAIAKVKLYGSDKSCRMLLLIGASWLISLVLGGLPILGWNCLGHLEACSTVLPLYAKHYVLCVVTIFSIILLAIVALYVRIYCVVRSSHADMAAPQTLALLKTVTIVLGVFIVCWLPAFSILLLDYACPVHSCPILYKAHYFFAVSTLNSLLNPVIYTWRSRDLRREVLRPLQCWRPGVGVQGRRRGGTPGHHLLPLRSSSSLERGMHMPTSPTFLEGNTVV
Sequence of Mothers against decapentaplegic homolog 3 (P84022 whole entry): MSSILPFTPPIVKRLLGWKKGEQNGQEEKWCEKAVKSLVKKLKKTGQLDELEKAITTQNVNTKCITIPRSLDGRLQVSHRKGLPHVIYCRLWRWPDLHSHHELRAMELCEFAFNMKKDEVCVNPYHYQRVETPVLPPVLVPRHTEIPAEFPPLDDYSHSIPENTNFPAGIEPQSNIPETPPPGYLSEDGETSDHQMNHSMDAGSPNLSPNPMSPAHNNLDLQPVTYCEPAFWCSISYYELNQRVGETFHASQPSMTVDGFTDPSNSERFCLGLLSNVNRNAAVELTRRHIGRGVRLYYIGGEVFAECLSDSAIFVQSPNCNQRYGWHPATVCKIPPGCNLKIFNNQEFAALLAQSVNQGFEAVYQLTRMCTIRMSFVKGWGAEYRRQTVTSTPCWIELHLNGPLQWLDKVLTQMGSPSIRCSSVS
Sequence of Glyceraldehyde-3-phosphate dehydrogenase (P04406 whole entry): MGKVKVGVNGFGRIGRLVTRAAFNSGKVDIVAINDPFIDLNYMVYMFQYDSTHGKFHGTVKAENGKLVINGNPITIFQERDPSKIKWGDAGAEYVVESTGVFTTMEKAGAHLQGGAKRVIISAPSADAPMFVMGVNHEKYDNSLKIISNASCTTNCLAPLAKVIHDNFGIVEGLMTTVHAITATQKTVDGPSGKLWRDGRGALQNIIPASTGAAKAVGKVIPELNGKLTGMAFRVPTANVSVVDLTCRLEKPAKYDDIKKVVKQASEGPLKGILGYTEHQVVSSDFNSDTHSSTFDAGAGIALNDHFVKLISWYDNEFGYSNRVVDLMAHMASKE
Sequence of Bcl-2-like protein 1 (Q07817 whole entry): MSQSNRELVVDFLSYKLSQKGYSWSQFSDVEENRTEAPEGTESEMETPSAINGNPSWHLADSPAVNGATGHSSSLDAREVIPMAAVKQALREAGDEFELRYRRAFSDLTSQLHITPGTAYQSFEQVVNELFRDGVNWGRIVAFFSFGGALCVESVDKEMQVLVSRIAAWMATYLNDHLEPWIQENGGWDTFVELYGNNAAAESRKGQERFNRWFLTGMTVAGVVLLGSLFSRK
Sequence of Tyrosyl-DNA phosphodiesterase 2 (O95551 whole entry): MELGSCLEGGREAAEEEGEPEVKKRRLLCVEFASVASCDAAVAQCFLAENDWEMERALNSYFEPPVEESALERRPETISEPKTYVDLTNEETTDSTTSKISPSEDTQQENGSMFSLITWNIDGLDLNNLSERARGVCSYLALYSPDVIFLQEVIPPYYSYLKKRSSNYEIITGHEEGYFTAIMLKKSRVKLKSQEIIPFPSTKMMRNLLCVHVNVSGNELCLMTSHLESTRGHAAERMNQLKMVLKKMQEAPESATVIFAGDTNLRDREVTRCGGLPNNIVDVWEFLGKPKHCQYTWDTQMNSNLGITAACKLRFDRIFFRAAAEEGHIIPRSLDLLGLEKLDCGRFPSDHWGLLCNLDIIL

For orientation: IC50 means the concentration at which inhibition is half-maximal. With `Nc1nc(S)c2ncn(C3OC(CO)C(O)C3O)c2n1` (stereo not drawn), the IC50 at Bcl-2-like protein 1 is 34 µM (not active); in assay [1], 7.34 µM (active); in assay [2], 4.94 µM (active).

`O=C(O)c1sc2ccccc2c1Cl`: the IC50 on NADPH oxidase 1 was > 17 µM (not active).

In the case of `O=C1C(Cl)=C(Cl)C(=O)N1c1cc(Cl)cc(Cl)c1`, the results for the IC50 (at Bcl-2-related protein A1 [3]; in assay [4]; at Bcl-2-related protein A1 [5]) were 2.07 µM (active), > 100 µM (not active) and 1.42 µM (active), respectively.

For orientation: EC50 means the concentration giving half of the maximal effect. For the molecule `Cc1ccc(NC(=O)c2cnc(N3CCN(c4ccccn4)CC3)c3ccccc23)c(Br)c1`, the results for the concentration giving a half-maximal response (EC50) (in assay [6]; on Mucolipin-3; on Ion channel NompC) were 8.67 µM (active), 4.96 µM (active) and > 29.9 µM (not active), respectively.

For orientation: AC50 means the concentration giving half of the maximal activity seen. Regarding `CC1(C)CC(=O)C(C2(O)C(=O)NC(=O)NC2=O)=C(O)C1`, the half-maximal activity concentration (AC50) was 1.23 µM (active) in [7] and 5.57 µM (active) in assay [10]. The figures for the IC50 in assay [8] and in assay [9] were 14.5 µM (inactive) and 2.3 µM (active), respectively. Also, the EC50 on Protein RecA was 2.23 µM (active).

`CCOc1ccc(N=Nc2c(=O)[nH]n3c(C)cc(C)nc23)cc1`: the half-maximal effective concentration (EC50) in assay [11] is > 100 µM (active).

For the molecule `Cc1cc(C(=O)CN2C(=O)NC(Cc3ccccc3)C2=O)c(C)n1Cc1cccs1` (stereo not drawn), the EC50 in [12] is > 30 µM (not active).

As to `Cc1ccc2[nH]c3c(NCc4ccco4)ncnc3c2c1`, the IC50 in [13] is 2.53 µM (active); in assay [14], > 69.5 µM (not active); in assay [15] it was 2.95 µM (active). For the same molecule, the EC50 is 17.8 µM (active) in the assay with H4, 29.1 µM (active) in assay [16] and 20.1 µM (active) in [17].
